# According to patent US11807644B2 (PMV Pharmaceuticals, Inc., priority 2020, dated 2023):
# Biological target: T1, recombinant His-tag Y220C p53 DBD protein (Homo sapiens, UniProt P04637, Y220C)
# T1 construct: recombinant His-tag Y220C p53 DBD protein (amino acids #˜94-312)
# Test: In vitro DNA binding activity assay (TR-FRET): binding of His-tag Y220C p53 DBD to biotin-labeled consensus DNA
# Assay type: biochemical
# Settings: SC150 = concentration to increase DNA binding by […], His-tag Y220C p53 DBD, biotin-labeled consensus DNA
row,Compound,Y220C SC150 (μM)
1,"COCC1(n2ccc(C(=O)NCc3nc(-c4cc5c(N[C@H]6CCN(C)C[C@H]6C)cccc5n4CC(F)(F)F)no3)c2)CC1 [Compound 505B, N-{[3-(4-{[(3R,4S)-1,3-dimethylpiperidin-4-yl]amino}-1-(2,2,2-trifluoroethyl)-1H-indol-2-yl)-1,2,4-oxadiazol-5-yl]methyl}-1-[1-(methoxymethyl)cyclopropyl]-1H-pyrrole-3-carboxamide]",* (* = 0 μM ≤ SC150 < 0.1 μM)
2,"COCC1(c2cc(C(=O)NCc3nc(-c4cc5c(N[C@@H]6CCOC[C@@H]6F)cccc5n4CC(F)(F)F)no3)cs2)CC1 [Compound 507B, N-{[3-(4-{[(3R,4R)-3-fluorooxan-4-yl]amino}-1-(2,2,2-trifluoroethyl)-1H-indol-2-yl)-1,2,4-oxadiazol-5-yl]methyl}-5-[1-(methoxymethyl)cyclopropyl]thiophene-3-carboxamide]",* (* = 0 μM ≤ SC150 < 0.1 μM)
3,"COCC(C)(C)c1cc(C(=O)NCc2nc(-c3cc4c(N[C@@H]5CCOC[C@@H]5F)cccc4n3CC(F)(F)F)no2)cs1 [Compound 508B, N-{[3-(4-{[(3R,4R)-3-fluorooxan-4-yl]amino}-1-(2,2,2-trifluoroethyl)-1H-indol-2-yl)-1,2,4-oxadiazol-5-yl]methyl}-5-(1-methoxy-2-methylpropan-2-yl)thiophene-3-carboxamide]",* (* = 0 μM ≤ SC150 < 0.1 μM)
4,"C[C@H]1CN(C)CC[C@H]1Nc1cccc2c1cc(-c1noc(CNC(=O)c3ccc(C(C)(C)O)s3)n1)n2CC(F)(F)F [Compound 509B, N-{[3-(4-{[(3S,4R)-1,3-dimethylpiperidin-4-yl]amino}-1-(2,2,2-trifluoroethyl)-1H-indol-2-yl)-1,2,4-oxadiazol-5-yl]methyl}-5-(2-hydroxypropan-2-yl)thiophene-2-carboxamide]",* (* = 0 μM ≤ SC150 < 0.1 μM)
5,"C[C@H]1CN(C)CC[C@H]1Nc1cccc2c1cc(-c1noc(CNC(=O)c3cnn(C(C)(C)C)c3)n1)n2CC(F)(F)F [Compound 510B, 1-tert-butyl-N-{[3-(4-{[(3S,4R)-1,3-dimethylpiperidin-4-yl]amino}-1-(2,2,2-trifluoroethyl)-1H-indol-2-yl)-1,2,4-oxadiazol-5-yl]methyl}-1H-pyrazole-4-carboxamide]",* (* = 0 μM ≤ SC150 < 0.1 μM)
6,"C[C@@H]1CN(C)CC[C@@H]1Nc1cccc2c1cc(-c1noc(CNC(=O)c3cnn(C(C)(C)C)c3)n1)n2CC(F)(F)F [Compound 511B, 1-tert-butyl-N-{[3-(4-{[(3R,4S)-1,3-dimethylpiperidin-4-yl]amino}-1-(2,2,2-trifluoroethyl)-1H-indol-2-yl)-1,2,4-oxadiazol-5-yl]methyl}-1H-pyrazole-4-carboxamide]",* (* = 0 μM ≤ SC150 < 0.1 μM)
7,"CC(C)(C)n1ccc(C(=O)NCc2nc(-c3cc4c(N[C@@H]5CCOC[C@H]5F)cccc4n3CC(F)(F)F)no2)c1 [Compound 512B, 1-tert-butyl-N-{[3-(4-{[(3S,4R)-3-fluorooxan-4-yl]amino}-1-(2,2,2-trifluoroethyl)-1H-indol-2-yl)-1,2,4-oxadiazol-5-yl]methyl}-1H-pyrrole-3-carboxamide]",* (* = 0 μM ≤ SC150 < 0.1 μM)
8,"C[C@@H]1CN(C)CC[C@@H]1Nc1cccc2c1cc(-c1noc(CNC(=O)c3ccn(C(C)(C)C)c3)n1)n2CC(F)(F)F [Compound 513B, 1-tert-butyl-N-{[3-(4-{[(3R,4S)-1,3-dimethylpiperidin-4-yl]amino}-1-(2,2,2-trifluoroethyl)-1H-indol-2-yl)-1,2,4-oxadiazol-5-yl]methyl}-1H-pyrrole-3-carboxamide]",* (* = 0 μM ≤ SC150 < 0.1 μM)
9,"C[C@H]1CN(C)CC[C@H]1Nc1cccc2c1cc(-c1noc(CNC(=O)c3ccn(C(C)(C)C)c3)n1)n2CC(F)(F)F [Compound 514B, 1-tert-butyl-N-{[3-(4-{[(3S,4R)-1,3-dimethylpiperidin-4-yl]amino}-1-(2,2,2-trifluoroethyl)-1H-indol-2-yl)-1,2,4-oxadiazol-5-yl]methyl}-1H-pyrrole-3-carboxamide]",* (* = 0 μM ≤ SC150 < 0.1 μM)
10,"COC[C@@H]1CCCN1c1nc(C(=O)NCc2nc(-c3cc4c(N[C@@H]5CCN(C)C[C@@H]5F)cccc4n3CC(F)(F)F)no2)cs1 [Compound 519B, N-{[3-(4-{[(3S,4R)-3-fluoro-1-methylpiperidin-4-yl]amino}-1-(2,2,2-trifluoroethyl)-1H-indol-2-yl)-1,2,4-oxadiazol-5-yl]methyl}-2-[(2S)-2-(methoxymethyl)pyrrolidin-1-yl]-1,3-thiazole-4-carboxamide]",* (* = 0 μM ≤ SC150 < 0.1 μM)
11,"COC[C@H]1CCCN1c1nc(C(=O)NCc2nc(-c3cc4c(N[C@@H]5CCN(C)C[C@@H]5F)cccc4n3CC(F)(F)F)no2)cs1 [Compound 520B, N-{[3-(4-{[(3S,4R)-3-fluoro-1-methylpiperidin-4-yl]amino}-1-(2,2,2-trifluoroethyl)-1H-indol-2-yl)-1,2,4-oxadiazol-5-yl]methyl}-2-[(2R)-2-(methoxymethyl)pyrrolidin-1-yl]-1,3-thiazole-4-carboxamide]",* (* = 0 μM ≤ SC150 < 0.1 μM)
12,"CCc1cc(C(=O)NCc2nc(-c3cc4c(N[C@@H]5CCN(C)C[C@@H]5F)cccc4n3CC(F)(F)F)no2)on1 [Compound 521B, 3-ethyl-N-{[3-(4-{[(3S,4R)-3-fluoro-1-methylpiperidin-4-yl]amino}-1-(2,2,2-trifluoroethyl)-1H-indol-2-yl)-1,2,4-oxadiazol-5-yl]methyl}-1,2-oxazole-5-carboxamide]",* (* = 0 μM ≤ SC150 < 0.1 μM)
13,"CO[C@@H]1CCN(c2nc(C(=O)NCc3nc(-c4cc5c(N[C@@H]6CCN(C)C[C@@H]6F)cccc5n4CC(F)(F)F)no3)cs2)C1 [Compound 522B, N-{[3-(4-{[(3S,4R)-3-fluoro-1-methylpiperidin-4-yl]amino}-1-(2,2,2-trifluoroethyl)-1H-indol-2-yl)-1,2,4-oxadiazol-5-yl]methyl}-2-[(3R)-3-methoxypyrrolidin-1-yl]-1,3-thiazole-4-carboxamide]",* (* = 0 μM ≤ SC150 < 0.1 μM)
14,"CO[C@H]1CCN(c2nc(C(=O)NCc3nc(-c4cc5c(N[C@@H]6CCN(C)C[C@@H]6F)cccc5n4CC(F)(F)F)no3)cs2)C1 [Compound 523B, N-{[3-(4-{[(3S,4R)-3-fluoro-1-methylpiperidin-4-yl]amino}-1-(2,2,2-trifluoroethyl)-1H-indol-2-yl)-1,2,4-oxadiazol-5-yl]methyl}-2-[(3S)-3-methoxypyrrolidin-1-yl]-1,3-thiazole-4-carboxamide]",* (* = 0 μM ≤ SC150 < 0.1 μM)
15,"CN1CC[C@@H](Nc2cccc3c2cc(-c2noc(CNC(=O)c4ccc(C(C)(C)C)[nH]4)n2)n3CC(F)(F)F)[C@@H](F)C1 [Compound 524B, 5-tert-butyl-N-{[3-(4-{[(3S,4R)-3-fluoro-1-methylpiperidin-4-yl]amino}-1-(2,2,2-trifluoroethyl)-1H-indol-2-yl)-1,2,4-oxadiazol-5-yl]methyl}-1H-pyrrole-2-carboxamide]",* (* = 0 μM ≤ SC150 < 0.1 μM)
16,CN1CC[C@@H](Nc2cccc3c2cc(-c2noc(CNC(=O)c4csc(N5CC6CC(C5)O6)n4)n2)n3CC(F)(F)F)[C@@H](F)C1 [Compound 525B],** (** = 0.1 μM ≤ SC150 < 0.5 μM)
17,"CC(C)c1cc(C(=O)NCc2nc(-c3cc4c(N[C@@H]5CCN(C)C[C@@H]5F)cccc4n3CC(F)(F)F)no2)co1 [Compound 526B, N-{[3-(4-{[(3S,4R)-3-fluoro-1-methylpiperidin-4-yl]amino}-1-(2,2,2-trifluoroethyl)-1H-indol-2-yl)-1,2,4-oxadiazol-5-yl]methyl}-5-(propan-2-yl)furan-3-carboxamide]",* (* = 0 μM ≤ SC150 < 0.1 μM)
18,"CN1CC[C@@H](Nc2cccc3c2cc(-c2noc(CNC(=O)c4csc(N5CC6(COC6)C5)n4)n2)n3CC(F)(F)F)[C@@H](F)C1 [Compound 527B, N-{[3-(4-{[(3S,4R)-3-fluoro-1-methylpiperidin-4-yl]amino}-1-(2,2,2-trifluoroethyl)-1H-indol-2-yl)-1,2,4-oxadiazol-5-yl]methyl}-2-{2-oxa-6-azaspiro[3.3]heptan-6-yl}-1,3-thiazole-4-carboxamide]",* (* = 0 μM ≤ SC150 < 0.1 μM)
19,"CN1CC[C@@H](Nc2cccc3c2cc(-c2noc(CNC(=O)c4csc(N(C)C(C)(C)C)n4)n2)n3CC(F)(F)F)[C@@H](F)C1 [Compound 528B, 2-[tert-butyl(methyl)amino]-N-{[3-(4-{[(3S,4R)-3-fluoro-1-methylpiperidin-4-yl]amino}-1-(2,2,2-trifluoroethyl)-1H-indol-2-yl)-1,2,4-oxadiazol-5-yl]methyl}-1,3-thiazole-4-carboxamide]",* (* = 0 μM ≤ SC150 < 0.1 μM)
20,"CN1CC[C@@H](Nc2cccc3c2cc(-c2noc(CNC(=O)c4ccn(C(C)(C)C)n4)n2)n3CC(F)(F)F)[C@@H](F)C1 [Compound 529B, 1-tert-butyl-N-{[3-(4-{[(3S,4R)-3-fluoro-1-methylpiperidin-4-yl]amino}-1-(2,2,2-trifluoroethyl)-1H-indol-2-yl)-1,2,4-oxadiazol-5-yl]methyl}-1H-pyrazole-3-carboxamide]",* (* = 0 μM ≤ SC150 < 0.1 μM)
21,"COC(C)(C)c1nc(C(=O)NCc2nc(-c3cc4c(N[C@@H]5CCN(C)C[C@@H]5F)cccc4n3CC(F)(F)F)no2)cs1 [Compound 530B, N-{[3-(4-{[(3S,4R)-3-fluoro-1-methylpiperidin-4-yl]amino}-1-(2,2,2-trifluoroethyl)-1H-indol-2-yl)-1,2,4-oxadiazol-5-yl]methyl}-2-(2-methoxypropan-2-yl)-1,3-thiazole-4-carboxamide]",* (* = 0 μM ≤ SC150 < 0.1 μM)
22,"CN1CC[C@@H](Nc2cccc3c2cc(-c2noc(CNC(=O)c4csc(C(C)(C)CO)n4)n2)n3CC(F)(F)F)[C@@H](F)C1 [Compound 532B, N-{[3-(4-{[(3S,4R)-3-fluoro-1-methylpiperidin-4-yl]amino}-1-(2,2,2-trifluoroethyl)-1H-indol-2-yl)-1,2,4-oxadiazol-5-yl]methyl}-2-(1-hydroxy-2-methylpropan-2-yl)-1,3-thiazole-4-carboxamide]",* (* = 0 μM ≤ SC150 < 0.1 μM)
